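These data come from cells grown in 96-well plates and exposed to compound for 48 hours at five concentrations. TGI: total growth inhibition.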
How the values were obtained:
Assay in all cases: NCI-60 cell line screen, 48 h
[1] = tested on: HOP-18 NSCLC
[2] = tested on: M19-MEL melanoma
[3] = tested on: DMS 114 small cell lung
[4] = tested on: DLD-1 colon
[5] = tested on: XF 498 CNS
[6] = tested on: DMS 273 small cell lung

Measured: TGI

CC1(C)OP23(NC(=O)OC2(C(F)(F)F)c2ccccc2O3)OC1(C)C (stereo unspecified)
> 100 µM: all assays above

Source: PubChem BioAssay (NCI)
